The values that follow come from publication PMC11237774, “On-target, dual aminopeptidase inhibition provides cross-species antimalarial activity” (mBio, 2024).

The target in experiment [1] is T1, PfA-M1 (Plasmodium falciparum, UniProt O96935).
T1 construct: made in house
The experiment in a line: Recombinant aminopeptidase fluorescence assay (H-Leu-NHMec). Format: biochemical, P. falciparum. Here is the method: (§1) Inhibition of aminopeptidase activity assays were performed against nine aminopeptidases: the M1 alanyl and M17 leucyl aminopeptidases from P. falciparum (PfA-M1; PfA-M17), P. vivax (Pv-M1; Pv-M17), and P. berghei (Pb-M1; Pb-M17), and three human M1 homologs: LTA4H (OriGene TP307617), ERAP1 (OriGene TP314469), and ERAP2 (Creative BioMart ERAP2-304H). The Plasmodium enzymes were produced recombinantly as described previously ([16], [17]), and the human recombinant enzymes were purchased from commercial suppliers as indicated.
(§2) The concentration of H-Leu-NHMec in the assay was held constant for each enzyme and ranged from 10 to 100 µM, depending on the enzyme. Reactions were measured at 37°C in white 384-well plates in a total volume of 25 or 50 µL using a spectrofluorimeter (BMG FLUOstar) with excitation at 355 nm and emission at 460 nm. The fluorescence signal was continuously monitored until a final steady-state velocity, v, was obtained. Inhibition constants were calculated from biological triplicates made from three different protein preparations.
(§3) Substrate concentrations were selected to allow sensitive detection of enzyme activity while not exceeding the Km for each enzyme. A compound concentration range was selected to obtain a complete inhibition curve (0%–100 %) in biological triplicate. Where possible, the Ki values were calculated by plotting the initial rates versus inhibitor concentration and fitting to the Morrison equation for tight-binding inhibitors in GraphPad Prism (V.8.4.1; non-linear regression method).

Experiment [2] deals with Pb-M1 (Plasmodium berghei, UniProt A0A509ATR4). The description is as above. Format: biochemical. As to the method: as §1, §2, §3
Chain of Pb-M1 (A0A509ATR4 entry or part of it): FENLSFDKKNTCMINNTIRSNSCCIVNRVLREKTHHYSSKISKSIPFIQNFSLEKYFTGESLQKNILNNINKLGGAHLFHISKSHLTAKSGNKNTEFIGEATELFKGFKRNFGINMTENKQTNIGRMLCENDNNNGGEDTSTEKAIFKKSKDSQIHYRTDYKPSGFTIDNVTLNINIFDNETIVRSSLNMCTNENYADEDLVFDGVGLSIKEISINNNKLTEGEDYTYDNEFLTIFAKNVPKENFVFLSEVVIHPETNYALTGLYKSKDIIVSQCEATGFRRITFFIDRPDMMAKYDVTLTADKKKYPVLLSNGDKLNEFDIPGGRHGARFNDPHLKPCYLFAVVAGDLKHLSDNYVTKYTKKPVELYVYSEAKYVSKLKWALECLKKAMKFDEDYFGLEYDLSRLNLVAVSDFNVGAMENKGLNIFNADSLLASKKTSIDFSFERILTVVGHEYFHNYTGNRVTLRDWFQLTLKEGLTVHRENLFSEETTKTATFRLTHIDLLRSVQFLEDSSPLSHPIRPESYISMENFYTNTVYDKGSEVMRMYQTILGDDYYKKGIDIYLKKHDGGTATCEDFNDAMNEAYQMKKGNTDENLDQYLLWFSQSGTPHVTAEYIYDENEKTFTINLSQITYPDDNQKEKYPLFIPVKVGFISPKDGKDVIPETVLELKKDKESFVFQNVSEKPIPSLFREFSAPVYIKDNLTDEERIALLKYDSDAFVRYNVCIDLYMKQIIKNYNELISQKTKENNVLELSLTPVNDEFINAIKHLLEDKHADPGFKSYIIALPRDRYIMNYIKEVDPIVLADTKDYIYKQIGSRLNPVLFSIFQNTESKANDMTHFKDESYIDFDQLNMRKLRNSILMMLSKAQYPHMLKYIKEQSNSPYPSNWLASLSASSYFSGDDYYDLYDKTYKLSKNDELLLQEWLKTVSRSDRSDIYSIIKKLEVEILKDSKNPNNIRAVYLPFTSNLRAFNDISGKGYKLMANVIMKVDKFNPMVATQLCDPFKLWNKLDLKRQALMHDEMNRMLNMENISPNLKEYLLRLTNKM
For experiment [3], the system named is PfNF54-s16-GFP mature (V) stage gametocytes. The experiment in a line: Image-based gametocyte viability assay. The class given is cell-based, P. falciparum. As to conditions: Plasmodium falciparum, 72 h, read-out: IC50 Mature-stage Gametocytes (mean ± SD). Here is the method: (§4) Viability assays were performed as described previously ([32], [33]) against PfNF54-s16-GFP early(I–III), late (IV–V), and mature (V) stage gametocytes. Gametocytes were assessed at the appropriate time points following gametogenesis; early stage (day 2), late stage (day 8), and mature stage (day 12). Compounds diluted in 4% DMSO were transferred into 384-well imaging plates; gametocytes prepared as described previously (35) were added, and plates were incubated for 72 h in 5% CO2, 5% O2, and 60% humidity at 37°C. After 72 h incubation, 5 µL of MitoTracker Red CMH2XRos in phosphate buffered saline (PBS) was added per well, and plates were incubated overnight. Image acquisition and analysis were undertaken on the Opera QEHS micro-plate confocal imaging system. An Acapella-based script using the CMH2XRos fluorescent signal and the GFP-designated object quantifying viable stage-dependent parasite morphology identified gametocytes. Gametocyte viability was calculated as a percentage of the positive (5 µM puromycin) and negative (0.4% DMSO) controls. IC50 values were calculated using a 4-parameter log dose, non-linear regression analysis, with sigmoidal dose response (variable slope) curve fit using GraphPad Prism (ver 4.0). No constraints were used in the curve fit. […] Experiments were performed as two or three biological replicates in duplicate.

In experiment [4] the test system is PfNF54-s16-GFP late (IV–V) stage gametocytes. Briefly: Image-based gametocyte viability assay. The class given is cell-based, P. falciparum. As to conditions: Plasmodium falciparum; stages IV–V, 72 h; read-out: IC50 Late-stage Gametocytes (mean ± SD). Here is the method:
as §4

The subject of experiment [5] is PfNF54-s16-GFP early (I–III) stage gametocytes. The experiment in a line: Image-based gametocyte viability assay. Format: cell-based, P. falciparum. The following applies: Plasmodium falciparum; stages I–III, 72 h; read-out: IC50 Early-stage Gametocytes (mean ± SD). As to the method:
Viability assays were performed as described previously ([32], [33]) against PfNF54-s16-GFP early(I–III), late (IV–V), and mature (V) stage gametocytes. Gametocytes were assessed at the appropriate time points following gametogenesis; early stage (day 2), late stage (day 8), and mature stage (day 12). Compounds diluted in 4% DMSO were transferred into 384-well imaging plates; gametocytes prepared as described previously (35) were added, and plates were incubated for 72 h in 5% CO2, 5% O2, and 60% humidity at 37°C. After 72 h incubation, 5 µL of MitoTracker Red CMH2XRos in phosphate buffered saline (PBS) was added per well, and plates were incubated overnight. Image acquisition and analysis were undertaken on the Opera QEHS micro-plate confocal imaging system. An Acapella-based script using the CMH2XRos fluorescent signal and the GFP-designated object quantifying viable stage-dependent parasite morphology identified gametocytes. Gametocyte viability was calculated as a percentage of the positive (5 µM puromycin) and negative (0.4% DMSO) controls. IC50 values were calculated using a 4-parameter log dose, non-linear regression analysis, with sigmoidal dose response (variable slope) curve fit using GraphPad Prism (ver 4.0). No constraints were used in the curve fit. Chloroquine, artesunate, pyronaridine, pyrimethamine, dihydroartemisinin (DHA), and methylene blue were used as control compounds. Experiments were performed as two or three biological replicates in duplicate.

For experiment [6], the system named is P. vivax clinical isolates. Briefly: Ex vivo drug susceptibility assay (schizont maturation) on clinical isolates. Format: cell-based. As to conditions: ex vivo clinical isolates, n = 6, read-out: P. vivax median EC50 (range). As to the method:
(§5) Plasmodium isolates were collected from patients attending public health clinics in Timika (Papua, Indonesia), a region endemic for multidrug-resistant strains of P. vivax and P. falciparum ([38][–][40]). Patients with symptomatic malaria presenting to an outpatient facility were recruited into the study if infected with either P. falciparum or P. vivax, with a parasitemia of between 2,000 µL^−1 and 80,000 µL^−1, and the majority (>60%) of asexual parasites at the ring stage of development. Venous blood (5 mL) was collected by venipuncture, and after removal of patient white blood cells using Plasmodipur filters (EuroProxima B.V., The Netherlands), packed infected red blood cells (iRBCs) were used for the ex vivo drug susceptibility assay.
(§6) Drug plates were pre-dosed by diluting the compounds in 50% methanol followed by lyophilization and storage at 4°C. Drug susceptibility of P. vivax and P. falciparum isolates was measured using a protocol modified from the WHO microtest as described previously ([40], [41]). […] A candle jar was used to mature the parasites at 37.0°C for 35–56 h. […] Thick blood films made from each well were stained with 5% Giemsa solution for 30 min and examined microscopically. The number of schizonts per 200 asexual-stage parasites was determined for each drug concentration and normalized to the control well without drug. The dose response data were analyzed using non-linear regression analysis, and the EC50 value was derived using an inhibitory sigmoid Emax model (In Vitro Analysis and Reporting Tool [IVART] [42, 43]).

The test system of experiment [7] is P. falciparum clinical isolates. The experiment is described as above. The class given is cell-based. As to conditions: ex vivo clinical isolates, n = 15, read-out: P. falciparum median EC50 (range). Here is the method: as §5, §6
[8] abbreviates: read-out: Inhibition of aminopeptidase activity.

The structures appear in SMILES notation. Like-named read-outs stand apart in the source and are kept apart here.

T1 sequence (O96935 whole entry): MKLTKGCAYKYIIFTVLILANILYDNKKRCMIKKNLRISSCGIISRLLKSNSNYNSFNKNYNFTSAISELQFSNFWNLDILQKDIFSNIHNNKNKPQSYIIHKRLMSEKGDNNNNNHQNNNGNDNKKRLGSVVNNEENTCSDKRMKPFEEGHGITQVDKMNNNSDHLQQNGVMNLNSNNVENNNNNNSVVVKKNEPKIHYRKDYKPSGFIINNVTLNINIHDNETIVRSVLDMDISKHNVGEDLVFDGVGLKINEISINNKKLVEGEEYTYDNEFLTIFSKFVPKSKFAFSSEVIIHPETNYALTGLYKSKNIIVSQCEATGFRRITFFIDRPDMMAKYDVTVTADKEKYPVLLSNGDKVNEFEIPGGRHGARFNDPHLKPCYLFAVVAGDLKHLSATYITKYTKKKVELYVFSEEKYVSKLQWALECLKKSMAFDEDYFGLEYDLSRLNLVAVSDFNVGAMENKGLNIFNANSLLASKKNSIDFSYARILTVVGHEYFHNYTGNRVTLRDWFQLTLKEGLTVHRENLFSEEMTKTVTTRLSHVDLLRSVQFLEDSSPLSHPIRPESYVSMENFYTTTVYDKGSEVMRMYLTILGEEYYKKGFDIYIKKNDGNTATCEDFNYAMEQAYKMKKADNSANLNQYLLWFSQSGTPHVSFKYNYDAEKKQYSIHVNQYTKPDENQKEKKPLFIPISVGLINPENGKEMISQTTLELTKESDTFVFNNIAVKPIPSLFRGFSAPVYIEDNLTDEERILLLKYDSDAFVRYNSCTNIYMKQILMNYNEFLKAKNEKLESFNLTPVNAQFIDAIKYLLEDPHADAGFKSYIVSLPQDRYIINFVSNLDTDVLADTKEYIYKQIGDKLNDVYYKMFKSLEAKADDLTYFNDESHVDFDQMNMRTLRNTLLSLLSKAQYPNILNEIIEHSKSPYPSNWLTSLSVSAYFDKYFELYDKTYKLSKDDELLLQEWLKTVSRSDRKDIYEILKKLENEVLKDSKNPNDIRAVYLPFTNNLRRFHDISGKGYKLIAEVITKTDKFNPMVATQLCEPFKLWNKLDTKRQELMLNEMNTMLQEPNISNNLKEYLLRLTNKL

Regarding `CC(C)(C)CC(=O)NC(C(=O)NO)c1ccc(-c2cc(F)c(F)c(F)c2)cc1` (stereo not shown) [MMV1557817, N-(2-(hydroxyamino)−2-oxo-1-(3′,4′,5′-trifluoro-[1,1′-biphenyl]-4-yl)ethyl)-3,3-dimethylbutanamide], the Ki was found to be 308 nM in experiment [1] (Pf M1, Morrison equation, read-out: Ki^(app) ± SEM) and 2 ± 0.2 nM in experiment [2]. The inhibition at 1.25 µM in experiment [1] (setting [8]) came out at 83%; in experiment [2] (setting [8]), 94%. The inhibition at 10 µM in experiment [1] (setting [8]) and in experiment [2] (setting [8]) was 100% in each case. In addition, the concentration for half-maximal inhibition (IC50) stood at 1470 nM in experiment [3], 309 nM in experiment [4] and 99 nM in experiment [5]. For the same compound, the concentration for a half-maximal effect (EC50) in experiment [6] (Plasmodium vivax) amounted to 69 nM; in experiment [6] it was 68.6 nM; in experiment [7] (Plasmodium falciparum) it was 98 nM; in experiment [7], 98.1 nM.

For the compound `C[C@H]1[C@H](OC(=O)CCC(=O)O)O[C@@H]2O[C@@]3(C)CC[C@H]4[C@H](C)CC[C@@H]1[C@@]24OO3` [artesunate], the inhibition at 1.25 µM in experiment [1] (setting [8]) is 4.8%; in experiment [2] (setting [8]), 0%. For the same compound, the inhibition at 10 µM in experiment [1] (setting [8]) is 11.9%; in experiment [2] (Pb-M1, 10 µM compound, read-out: Inhibition of aminopeptidase activity) it was 12.8%. The inhibition at 500 µM in experiment [1] (setting [8]) worked out at 16.8%; in experiment [2] (setting [8]), 81.3%. Also, the values for the inhibition at 1000 µM in experiment [1] (setting [8]) and in experiment [2] (setting [8]) were 43.2% and 78.2%, respectively. In addition, the results for the IC50 in experiment [3], in experiment [4] and in experiment [5] were 51 ± 23 nM, 26 ± 2 nM and 16 ± 5 nM, respectively. Further, the EC50 in experiment [6] (Plasmodium vivax) was 0.6 nM; in experiment [6], 1 nM; in experiment [7] (Plasmodium falciparum), 1.2 nM; in experiment [7], 1 nM.

The inhibition is the relative decrease from the control value, in per cent. What is called IC50 is the midpoint of a concentration-inhibition curve. Usually EC50 stands for the midpoint of the concentration-response curve.
